From PMC10608985, “Retention Behavior of Anticancer Thiosemicarbazides in Biomimetic Chromatographic Systems and In Silico Calculations” (Molecules, 2023)

What was measured:
[1] = test system: α1-acid glycoprotein (AGP); experiment: HPLC on immobilized AGP column, affinity and % plasma–protein binding; assay type: in vitro ADME, human; settings: for log K AGP: binding equilibrium constant from calibration curve (Equation 9) of log k AGP; for fraction unbound: human, pH 7.4, % plasma–protein binding converted from log K AGP (Equation 10), read-out: %PPB AGP (converted); for log k AGP: retention on AGP column, 50 mM ammonium acetate pH 7.4 / propan-2-ol 85/15 (v/v)
Procedure: (§1) Measurements on HSA and AGP immobilized protein columns were carried out with […] isopropanol content in the aqueous mobile phase.
(§2) The standard calibration curve was used to predict log K values (K—binding equilibrium constant) of investigated compounds to HSA and AGP. Next, the log K values were converted into a percentage of plasma–protein binding (%PPB) of the compounds (Table 2). […] It is the lowest for compound 16 with -NO2 substituent, unsubstituted compound 1, and fluorine derivatives 2 and 9. In a group of […] derivatives in the same position of the phenyl ring, the %PPB to AGP increases with the increase in the atomic weight of the halogen atom and the lipophilicity of the molecule.
(§3) HPLC measurements were performed using a liquid chromatograph Knauer (Knauer, Berlin, Germany) with a dual pump, a 20 µL simple injection valve, and a UV–visible detector. The compounds were detected under UV light at 280 nm at room temperature. The retention time of an unretained solute (t0) was determined by the injection of a small amount of citric acid dissolved in water.
(§4) A human serum albumin (HSA) immobilized on the 5 µm silica gel column 100 × 3 mm (Chiralpac) and an α1-acid glycoprotein (AGP) immobilized on the 5 µm silica gel column 100 × 4 mm (Chiralpac) were used. The compounds were dissolved at 0.5 mg/mL concentration in 50% propan-2-ol and ammonium acetate solution (pH = 7.4) mixtures for HSA measurements. The mobile phase was composed of 50 mM ammonium acetate solution (pH = 7.4) and propan-2-ol at 85/15 (v/v) for AGP, respectively. The flow of mobile phases was 0.5 mL×min^−1. Log k values for the selected mobile phase were determined for all studied compounds and standard substances. The % protein plasma binding (% PPB) values were calculated from the calibration curve according to Valko et al..
(§5) Calibration of the protein columns: The column performance check and the calibration check were performed before measurements. The racemic mixture of warfarin was used for their performance evaluation. The following calibration set of drugs was applied: bromazepam, carbamazepine, diclofenac, nicardipine, nizatidine, piroxicam for HSA and bromazepam, chlorpromazine, imipramine, nicardipine, nizatidine, propranolol, and warfarin for AGP. The analytical standards were purchased from Sigma Aldrich Steinhen, Steinheim am Albuch, Germany). The drugs were dissolved at 0.5 mg/mL concentration in 50% propan-2-ol and ammonium acetate solution mixtures (pH = 7.4). The obtained log k values from HPLC were plotted against the log K values (K—binding equilibrium constant, log K—linearized PPB) based on the literature data for plasma–protein binding (%, PPB). The following relationships were obtained: log KHSA = 0.2513 (±0.0984) + 1.0525 (±0.1171) log k HSA(8) n=6, R=0.9761, R^2 = 0.9528, Radj2 = 0.9410, s = 0.1948 log KAGP = 0.1733 (±0.0574) + 0.8902 (±0.0787) log k AGP(9) n=7, R=0.9810, R^2 = 0.9623, Radj2 = 0.9548, s = 0.1113
(§6) Log K values were converted into %PPB using the following equation [15]:(10) %PPB=101×10^logK/1+10^logK

[2] = HPLC lipophilicity on IAM (immobilized artificial membrane, phosphatidylcholine) stationary phase; assay type: physicochemical; settings: pH 7.4; for Log k IAM: Table S2; for log kw IAM: intercept, linear extrapolation to water; for log kw IAM / -S IAM: ACN/20 mM phosphate buffer; for -S IAM: slope of Soczewiński–Wachtmeister equation
Procedure: (§7) For the evaluation of the compounds the following stationary phases were used: C-18; biomimetic, IAM; cholesterol (Chol); immobilized proteins HSA and AGP. For the lipophilicity determination, MeOH (C-18, Chol) or ACN (IAM) were applied as the organic modifiers. The measurements were performed at pH 7.4 of the mobile phase. The regular changes in the retention of all solutes used as organic modifier content in the mobile phase on three studied stationary phases were found. It is expressed by the Soczewiński–Wachtmeister Equation (1):log k = log kw + S (% organic modifier)(1) where log kw—the intercept; S—the slope of regression curve. […] Log kw as well as S parameters are commonly applied as lipophilicity descriptors.
as §3
A Rexchrom IAM.PC.DD2 (12 μm, 100 × 4.6 mm, 300 Å) (Regis Technologies, Morton Grove, IL, USA) column was used as the stationary phase. The compounds were dissolved at a concentration of 0.5 mg × mL^−1 in MeOH. The mobile phases consisted of different volume fractions of ACN and 20 mM phosphate buffer; the aqueous phase maintained a pH = 7.4 (0.02 M KH2PO4, Na2HPO4 and 0.15 M KCl). The acetonitrile concentration ranged from 0.05 to 0.4 (v/v), depending on the structure of compound, at 0.05 intervals (Table S2 in the Supplementary Materials). The flow rate was 1 mL × min^−1.

[3] = target: T1, human serum albumin (HSA) (Homo sapiens, UniProt P02768); experiment: HPLC on immobilized HSA column, affinity and % plasma–protein binding; assay type: in vitro ADME; settings: for log K HSA: binding equilibrium constant from calibration curve (Equation 8) of log k HSA; for log k HSA: retention on HSA column, 50 mM ammonium acetate pH 7.4 / propan-2-ol 85/15 (v/v); for fraction unbound: human, pH 7.4, % plasma–protein binding converted from log K HSA (Equation 10), read-out: %PPB HSA (converted)
T1 construct: purchased Chiralpac
Procedure: as §1, §2, §3, §4, §5, §6

[4] = set-up: method as in Kozyra et al. [31]; settings: MeOH/20 mM acetate buffer, pH 7.4, ref Kozyra et al. [31], cited from earlier work; for log kw C-18: intercept of Soczewiński–Wachtmeister equation (water as mobile phase); for -S C-18: slope of Soczewiński–Wachtmeister equation
[5] = HPLC lipophilicity on cholesterol (Chol) stationary phase; assay type: physicochemical; settings: pH 7.4; for Log k Chol: Table S3; for log kw Chol: intercept, linear extrapolation to water; for log kw Chol / -S Chol: MeOH/20 mM acetate buffer; for -S Chol: slope of Soczewiński–Wachtmeister equation
Procedure: as §7, §3
Cogent 4 UDC Cholesterol (150 × 2.1 mm, 4 µm) MicroSolv Technology Corporation (Leland, NC, USA) column was used. The mobile phase consisted of different volume mixtures of MeOH as the organic modifier and 20 mM acetate buffer as the aqueous phase, to obtain pH = 7.4. The concentrations of the organic modifier were in the range from 0.3 to 0.8 (v/v) with step 0.05 or 0.1 (Table S3 in the Supplementary Materials). The flow rate was 0.35 mL × min^−1.

T1 sequence (P02768 25-609): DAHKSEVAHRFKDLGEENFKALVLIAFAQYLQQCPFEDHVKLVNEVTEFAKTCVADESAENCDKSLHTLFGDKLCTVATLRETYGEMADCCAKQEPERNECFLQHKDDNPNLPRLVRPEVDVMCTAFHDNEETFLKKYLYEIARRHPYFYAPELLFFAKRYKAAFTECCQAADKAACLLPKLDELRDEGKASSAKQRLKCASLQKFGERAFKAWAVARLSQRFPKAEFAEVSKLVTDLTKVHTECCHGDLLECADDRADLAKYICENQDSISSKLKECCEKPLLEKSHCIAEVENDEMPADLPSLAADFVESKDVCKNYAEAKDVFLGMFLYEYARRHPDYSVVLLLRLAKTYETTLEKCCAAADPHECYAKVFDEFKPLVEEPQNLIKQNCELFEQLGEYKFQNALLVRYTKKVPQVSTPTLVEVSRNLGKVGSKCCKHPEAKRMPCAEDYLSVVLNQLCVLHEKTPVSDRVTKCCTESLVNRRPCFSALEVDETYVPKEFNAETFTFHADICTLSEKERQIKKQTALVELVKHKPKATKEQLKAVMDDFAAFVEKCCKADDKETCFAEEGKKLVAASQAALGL

| SMILES | log K AGP [1] | fraction unbound [1] | log k AGP [1] | Log k IAM ([2]; ACN 0.15 v/v in mobile phase) | Log k IAM ([2]; ACN 0.20 v/v in mobile phase) | Log k IAM ([2]; ACN 0.25 v/v in mobile phase) | Log k IAM ([2]; ACN 0.30 v/v in mobile phase) | Log k IAM ([2]; ACN 0.35 v/v in mobile phase) | log kw IAM [2] | -S IAM [2] | log K HSA [3] | log k HSA [3] | Log k Chol ([5]; MeOH 0.40 v/v in mobile phase) | Log k Chol ([5]; MeOH 0.45 v/v in mobile phase) | Log k Chol ([5]; MeOH 0.50 v/v in mobile phase) | Log k Chol ([5]; MeOH 0.60 v/v in mobile phase) | log kw Chol [5] | -S Chol [5] | log kw C-18 [4] | -S C-18 [4] | other results |
| --- | --- | --- | --- | --- | --- | --- | --- | --- | --- | --- | --- | --- | --- | --- | --- | --- | --- | --- | --- | --- | --- |
| O=C(COc1ccccc1)NNC(=S)Nc1cccc(I)c1 [Compound 8] | 0.8556 | 0.114 | 0.7664 | 1.304 | 0.952 | 0.573 | 0.088 | -0.074 | 2.3083 | 6.9157 | 2.1342 | 1.7890 | 1.443 | 1.026 | 0.834 | 0.522 | 3.7019 | 5.6623 | 3.0072 | 4.9651 | Log k IAM ([2]; ACN 0.40 v/v in mobile phase): -0.404; Log k Chol ([5]; MeOH 0.70 v/v in mobile phase): -0.165; Log k Chol ([5]; MeOH 0.80 v/v in mobile phase): -0.984 |
| O=C(COc1ccccc1)NNC(=S)Nc1ccc([N+](=O)[O-])cc1 [Compound 16] | 0.3508 | 0.302 | 0.1994 | 0.590 | 0.253 | 0.016 |  | -0.533 | 1.5455 | 6.0875 | 1.7456 | 1.4198 | 0.843 | 0.478 | 0.093 | -0.189 | 2.8538 | 5.2122 | 2.7200 | 5.1865 | Log k IAM ([2]; ACN 0.05 v/v in mobile phase): 1.287; Log k IAM ([2]; ACN 0.10 v/v in mobile phase): 0.964; fraction unbound [3]: 0.008; Log k Chol ([5]; MeOH 0.30 v/v in mobile phase): 1.264; Log k Chol ([5]; MeOH 0.35 v/v in mobile phase): 1.082 |
| O=C(COc1ccccc1)NNC(=S)Nc1ccc(I)cc1 [Compound 12] | 0.8378 | 0.118 | 0.7465 | 1.352 | 0.951 | 0.655 | 0.141 | -0.016 | 2.3341 | 6.8364 | 2.1778 | 1.8304 | 1.303 | 1.049 | 0.685 | 0.404 | 3.3300 | 5.0829 | 2.9681 | 4.8352 | Log k IAM ([2]; ACN 0.40 v/v in mobile phase): -0.358; Log k Chol ([5]; MeOH 0.70 v/v in mobile phase): -0.214; Log k Chol ([5]; MeOH 0.80 v/v in mobile phase): -0.783 |
| O=C(COc1ccccc1)NNC(=S)Nc1ccc(Cl)c(Cl)c1 [Compound 15] | 0.9150 | 0.099 | 0.8332 | 1.542 | 1.032 | 0.667 | 0.158 | -0.062 | 2.5780 | 7.5617 | 1.8712 | 1.5391 |  | 1.349 | 1.013 | 0.792 | 4.2283 | 6.2128 | 3.3757 | 5.3305 | Log k IAM ([2]; ACN 0.40 v/v in mobile phase): -0.346; fraction unbound [3]: 0.003; Log k Chol ([5]; MeOH 0.70 v/v in mobile phase): -0.087; Log k Chol ([5]; MeOH 0.80 v/v in mobile phase): -0.876 |

Second part, led by results:

| log K AGP [1] | fraction unbound [1] | log k AGP [1] | Log k IAM ([2]; ACN 0.15 v/v in mobile phase) | Log k IAM ([2]; ACN 0.20 v/v in mobile phase) | Log k IAM ([2]; ACN 0.25 v/v in mobile phase) | Log k IAM ([2]; ACN 0.30 v/v in mobile phase) | Log k IAM ([2]; ACN 0.35 v/v in mobile phase) | log kw IAM [2] | -S IAM [2] | log K HSA [3] | log k HSA [3] | Log k Chol ([5]; MeOH 0.40 v/v in mobile phase) | Log k Chol ([5]; MeOH 0.45 v/v in mobile phase) | Log k Chol ([5]; MeOH 0.50 v/v in mobile phase) | Log k Chol ([5]; MeOH 0.60 v/v in mobile phase) | log kw Chol [5] | -S Chol [5] | SMILES | log kw C-18 [4] | -S C-18 [4] | other results |
| --- | --- | --- | --- | --- | --- | --- | --- | --- | --- | --- | --- | --- | --- | --- | --- | --- | --- | --- | --- | --- | --- |
| 0.5523 | 0.211 | 0.4257 | 0.794 | 0.515 | 0.291 | -0.138 | -0.209 | 1.5588 | 5.2422 | 1.2059 | 0.9070 | 0.759 | 0.461 | 0.198 | -0.068 | 2.3437 | 4.1573 | O=C(COc1ccccc1)NNC(=S)Nc1ccccc1Cl [Compound 3] | 2.3929 | 4.5312 | Log k IAM ([2]; ACN 0.10 v/v in mobile phase): 1.022; fraction unbound [3]: 0.049; Log k Chol ([5]; MeOH 0.30 v/v in mobile phase): 1.024; Log k Chol ([5]; MeOH 0.35 v/v in mobile phase): 0.917; Log k Chol ([5]; MeOH 0.80 v/v in mobile phase): -1.020 |
| 0.7514 | 0.142 | 0.6494 | 0.809 | 0.533 | 0.278 | -0.130 | -0.258 | 1.6606 | 5.6500 | 1.5246 | 1.2098 | 1.025 | 0.758 | 0.405 | 0.062 | 3.0227 | 5.0400 | O=C(COc1ccccc1)NNC(=S)Nc1cccc2ccccc12 [Compound 18] | 2.6769 | 4.6919 | Log k IAM ([2]; ACN 0.10 v/v in mobile phase): 1.105; fraction unbound [3]: 0.019; Log k Chol ([5]; MeOH 0.30 v/v in mobile phase): 1.494; Log k Chol ([5]; MeOH 0.35 v/v in mobile phase): 1.296; Log k Chol ([5]; MeOH 0.80 v/v in mobile phase): -1.016 |
